Measurements published in ChEMBL document CHEMBL5143510, “Structure modification and biological evaluation of indole-chalcone derivatives as anti-tumor agents through dual targeting tubulin and TrxR” (Eur J Med Chem, 2022).
Activity calls are given as the source filed them. The calls are words filed in the database; no cut-off is given here.

Key:
MHCC97H [1] = experiment: Antitumor activity against human MHCC97H cells xenografted in BALB/c mouse assessed as tumor growth inhibition at 30 mg/kg, ip administered every other day for 30 days; type: functional; settings: 720 h, time 30 day, read-out: TGI
HUVEC [2] = experiment: Induction of morphological changes in human HUVEC cells assessed as cell shrinkage at 50 nM incubated for 48 hrs by phase contrast microscopic analysis; type: toxicity, cell-based; settings: 0.05 µM
[3] = Cytotoxicity against human HUVEC cells assessed as reduction in cell viability incubated for 48 hrs by MTT assay; type: toxicity, cell-based
[4] = Cytotoxicity against human L02 cells assessed as reduction in cell viability incubated for 48 hrs by MTT assay; type: toxicity, cell-based
Homo sapiens [5] = species on record: Homo sapiens; experiment: Irreversible inhibition of TrxR (unknown origin) using DTNB as substrate at 10 uM incubated for 2 hrs in presence of NADPH followed by substrate addition ultrafiltration based microplate reader analysis relative to control
MHCC97H [6] = experiment: Antitumor activity against human MHCC97H cells xenografted in BALB/c mouse assessed as tumor weight at 30 mg/kg, ip administered every other day for 30 days; type: functional; settings: time 30 day
NCI/ADR-RES = experiment: Antiproliferative activity against adriamycin resistant human MCF7/ADR cells assessed as reduction in cell viability incubated for 48 hrs by MTT assay; type: functional, cell-based
HCT-8 = experiment: Antiproliferative activity against human HCT-8 cells assessed as reduction in cell viability incubated for 48 hrs by MTT assay; type: functional, cell-based; settings: HCT-8, 48 h
MHCC97H [7] = experiment: Induction of morphological changes in human MHCC97H cells assessed as cell shrinkage at 5 to 50 nM incubated for 48 hrs by phase contrast microscopic analysis; type: functional, cell-based; settings: dose 5-50 nM
Homo sapiens [8] = species on record: Homo sapiens; experiment: Irreversible inhibition of TrxR (unknown origin) using DTNB as substrate at 2.5 uM incubated for 2 hrs in presence of NADPH followed by substrate addition ultrafiltration based microplate reader analysis relative to control
Tubulin (Homo sapiens) [9] = molecular target: T1, Tubulin (Homo sapiens) (UniProt P68371+Q9H4B7+P0DPH7+P68366+Q13509+Q71U36+P04350+Q3ZCM7+P07437+P68363+Q9BQE3+Q6PEY2+Q13885+Q9BVA1+Q9BUF5); experiment: Inhibition of colchicine binding to tubulin (unknown origin) at 1.25 uM by competitive binding assay relative to control; type: protein-complex assay
MHCC97H [10] = experiment: Induction of cell cycle arrest in human MHCC97H cells assessed as increase in accumulation of cells at G2/M phase at 5 to 50 nM measured after 48 hrs by propidium iodide staining based flow cytometry; type: functional; settings: dose 5-50 nM
HeLa = experiment: Antiproliferative activity against human HeLa cells assessed as reduction in cell viability incubated for 48 hrs by MTT assay; type: functional, cell-based
[11] = Antiproliferative activity against paclitaxel resistant human A2780/PTX cells assessed as reduction in cell viability incubated for 48 hrs by MTT assay; type: functional, cell-based
MHCC97H [12] = experiment: Induction of apoptosis in human MHCC97H cells assessed as downregulation of Bcl-2 expression at 5 to 50 nM measured after 24 to 48 hrs by Western blot analysis; type: functional, cell-based; settings: dose 5-50 nM, time 24-48 hrs
MHCC97H [13] = experiment: Induction of cell cycle arrest in human MHCC97H cells assessed as decrease in accumulation of cells at G1 phase at 5 to 50 nM measured after 48 hrs by propidium iodide staining based flow cytometry; type: functional; settings: dose 5-50 nM
Tubulin (Homo sapiens) [14] = molecular target: T1, Tubulin (Homo sapiens); experiment: Inhibition of colchicine binding to tubulin (unknown origin) at 2.50 uM by competitive binding assay relative to control; type: protein-complex assay; settings: dose 2.5 µM
Homo sapiens [15] = species on record: Homo sapiens; experiment: Mixed type inhibition of TrxR (unknown origin) using various concentrations of DTNB as substrate at 1.875 to 15 uM preincubated for 15 mins followed by substrate addition by double reciprocal Lineweaver-Burk plot analysis; settings: dose 1.875-15 µM
MHCC97H [16] = experiment: Induction of apoptosis in human MHCC97H cells assessed as increase in total apoptotic cells incubated for 24 to 48 hrs by Annexin V-FITC/PI staining based flow cytometry method; type: functional, cell-based; settings: dose 5-50 nM, time 24-48 hrs, DDE = dose-dependent effect
A2780 = experiment: Antiproliferative activity against human A2780 cells assessed as reduction in cell viability incubated for 48 hrs by MTT assay; type: functional, cell-based; settings: A2780, 48 h
[17] = Inhibition of TrxR in human MHCC97H cells using DTNB as substrate preincubated for 4 hrs in presence of NADPH followed by substrate addition by microplate reader analysis; type: cell-based
Tubulin (Homo sapiens) [18] = molecular target: T1, Tubulin (Homo sapiens); experiment: Disruption of microtubule network in human MHCC97H cells assessed as punctate morphology at 5 to 50 nM incubated for 24 hrs by Hoechst 33342 staining based confocal microscopy; type: cell-based; settings: dose 5-50 nM
[19] = Selectivity ratio, ratio of IC50 for cytotoxicity against human HUVEC cells to IC50 for antiproliferative activity against human MHCC97H cells; type: toxicity, cell-based; settings: HUVEC cells versus MHCC97H cells, read-out: Ratio IC50
MHCC97H [20] = experiment: Induction of apoptosis in human MHCC97H cells assessed as increase in total apoptotic cells at 5 to 50 nM by Annexin V-FITC/PI staining based flow cytometry method; type: functional, cell-based; settings: dose 5-50 nM, time 24-48 hrs, TDE = time-dependent effect
[21] = Resistance index, ratio of IC50 for antiproliferative activity against adriamycin resistant human MCF7/ADR cells to IC50 for antiproliferative activity against human MCF7 cells; type: functional
HUVEC [22] = experiment: Induction of morphological changes in human HUVEC cells assessed as loss of cell interactions at 50 nM incubated for 48 hrs by phase contrast microscopic analysis; type: toxicity, cell-based; settings: 0.05 µM
MHCC97H [23] = experiment: Induction of apoptosis in human MHCC97H cells assessed as downregulation of Bcl-xl expression at 5 to 50 nM measured after 24 to 48 hrs by Western blot analysis; type: functional, cell-based; settings: dose 5-50 nM, time 24-48 hrs
MHCC97H [24] = experiment: Induction of apoptosis in human MHCC97H cells assessed as nucleus shrinkage at 5 to 50 nM incubated for 24 hrs by Hoechst 33342 staining based fluorescence microscopy; type: functional, cell-based; settings: dose 5-50 nM
HCT-8/VCR = experiment: Downregulation of TrxR in vincristine resistant human HCT-8/VCR cells at 10 to 50 nM incubated for 48 hrs by Western blot analysis; type: functional, cell-based; settings: dose 10-50 nM
A2780/PTX = experiment: Downregulation of TrxR in paclitaxel resistant human A2780/PTX cells at 10 to 50 nM incubated for 48 hrs by Western blot analysis; type: functional, cell-based; settings: dose 10-50 nM
MHCC97H [25] = experiment: Induction of morphological changes in human MHCC97H cells assessed as cell rounding at 5 to 50 nM incubated for 48 hrs by phase contrast microscopic analysis; type: functional, cell-based; settings: dose 5-50 nM
Tubulin (Homo sapiens) [26] = molecular target: T1, Tubulin (Homo sapiens); experiment: Disruption of microtubule network in human MHCC97H cells assessed as dotted morphology at 5 to 50 nM incubated for 24 hrs by Hoechst 33342 staining based confocal microscopy; type: cell-based; settings: dose 5-50 nM
[27] = Toxicity in BALB/c mouse xenografted with human MHCC97H cells assessed as change in body weight at 30 mg/kg, ip administered every other day for 30 days; type: organism-based; settings: in vivo, 720 h, time 30 day
Tubulin (Homo sapiens) [28] = molecular target: T1, Tubulin (Homo sapiens); experiment: Disruption of microtubule network in human MHCC97H cells assessed as shrunken morphology at 5 to 50 nM incubated for 24 hrs by Hoechst 33342 staining based confocal microscopy; type: cell-based; settings: dose 5-50 nM

COc1ccc2c(/C=C(\C)C(=O)c3cc(OC)c(OC)c([Se]C)c3)c[nH]c2c1
inhibition in vivo at 30 mg/kg (MHCC97H [1]): 75.4%
Activity (HUVEC [2]): Toxic
IC50 at 48 h [3]: 56 nM
IC50 at 48 h [4]: 398 nM
inhibition (Homo sapiens [5]): 91.4%
Activity (MHCC97H [6]): 0.453 g
IC50 (NCI/ADR-RES): 18 nM
IC50 (HCT-8): 29 nM
Activity (MHCC97H [7]): Active
inhibition (Homo sapiens [8]): 58.4%
inhibition (Tubulin (Homo sapiens) [9]): 56.5%
Activity (MHCC97H [10]): Active
IC50 (HeLa): 21 nM
IC50 [11]: 20 nM
Activity (MHCC97H [12]): Active
Activity (MHCC97H [13]): Active
inhibition (Tubulin (Homo sapiens) [14]): 46.7%
inhibition (Homo sapiens [15]): Active
Activity (MHCC97H [16]): Dde
IC50 (A2780): 18 nM
IC50 [17]: 10200 nM
Activity (Tubulin (Homo sapiens) [18]): Active
selectivity ratio [19]: 9.33
Activity (MHCC97H [20]): Tde
Ratio IC50 [21]: 0.51
Activity (HUVEC [22]): Toxic
Activity (MHCC97H [23]): Active
Activity (MHCC97H [24]): Active
Activity (HCT-8/VCR): Active
Activity (A2780/PTX): Active
Activity (MHCC97H [25]): Active
Activity (Tubulin (Homo sapiens) [26]): Active
Activity [27]: Non-Toxic
Activity (Tubulin (Homo sapiens) [28]): Active
